{"source": "paper PMC3870094", "about": "(Environmental science & technology, 2013)", "key": {"[1]": {"target": "T1, Rat CYP2B1 (Rattus norvegicus, UniProt P00176)", "T1 sequence (P00176 1-491)": "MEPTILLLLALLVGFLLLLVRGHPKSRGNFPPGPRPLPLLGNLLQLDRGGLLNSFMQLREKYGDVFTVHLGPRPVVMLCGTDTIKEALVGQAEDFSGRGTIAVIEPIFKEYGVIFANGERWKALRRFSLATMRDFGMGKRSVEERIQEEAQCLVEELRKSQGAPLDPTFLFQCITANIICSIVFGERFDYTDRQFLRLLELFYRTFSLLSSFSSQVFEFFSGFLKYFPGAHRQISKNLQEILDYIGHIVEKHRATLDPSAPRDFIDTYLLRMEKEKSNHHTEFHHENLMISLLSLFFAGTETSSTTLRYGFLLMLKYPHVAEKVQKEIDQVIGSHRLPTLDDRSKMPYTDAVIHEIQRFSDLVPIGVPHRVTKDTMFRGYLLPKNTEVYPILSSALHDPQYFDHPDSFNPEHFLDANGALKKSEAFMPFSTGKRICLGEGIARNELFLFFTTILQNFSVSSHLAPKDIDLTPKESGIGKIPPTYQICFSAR", "conditions": "for Depletion of OH-PCB after 60 min: rat CYP2B1, OH-PCB as substrate; for EF of OH-PCB substrate after biotransformation: rat CYP2B1, racemic OH-PCB as substrate; for Average EF of 5-OH-PCB metabolite: formed from parent PCB by rat CYP2B1, 60 min, two enantioselective columns; for Biotransformation activity of atropisomer compared with antipode: Fig. 1A1; for Formation of 4,5-DiOH-PCB from PCB: Fig. 1B1; for 4-OH-PCB metabolites detected by GC-ECD: not confirmed by GC-MS; for Depletion of PCB after 60 min incubation: rat CYP2B1, 1000 ng/mL PCB"}, "[2]": {"target": "T1, Rat CYP2B1", "type": "in vitro ADME", "conditions": "for Formation of metabolite with increases in initial (+)-PCB 136 concentration: 500 ng (−)-PCB 136 as major substrate"}, "[3]": {"conditions": "cited from earlier work; for EF of OH-PCB 95 in the liver: female C57Bl/6 mice"}, "[4]": {"tested_on": "rat liver microsomes", "conditions": "cited from earlier work"}, "[5]": {"conditions": "Sprague-Dawley rats, intraperitoneal injection of PCB 136; cited from earlier work"}, "[6]": {"conditions": "cited from earlier work"}}, "note": "Several values for one entry are separate records, joined by “and”; a condition that tells them apart may be missing. Equal values may be shown once.", "data": [{"compound": "Oc1c(O)c(Cl)c(-c2cc(Cl)ccc2Cl)c(Cl)c1Cl", "note": "[4,5-95, 3,4-dihydroxy −2,2',5,5',6-pentachlorobiphenyl]", "values": [{"measurement": "EF of 4,5-95 formed", "setting": "[1]; rat CYP2B1, 4-95 incubation, 60 min", "value": 0.53}]}, {"compound": "Oc1c(O)c(Cl)c(-c2c(Cl)ccc(Cl)c2Cl)c(Cl)c1Cl", "note": "[4,5-136, 3,4-dihydroxy −2,2',3',5,6,6'-hexachlorobiphenyl]", "values": [{"measurement": "Formation of metabolite with increases in initial (+)-PCB 136 concentration", "setting": "[2]; 60 min", "value": "significantly decreased"}]}, {"compound": "Oc1cc(Cl)c(-c2cc(Cl)ccc2Cl)c(Cl)c1Cl", "note": "[4-95, 2,2',3,5',6-pentachlorobiphenyl-4-ol]", "values": [{"measurement": "Depletion of OH-PCB after 60 min", "setting": "[1]; 60 min", "value": 40, "unit": "%"}, {"measurement": "EF of OH-PCB substrate after biotransformation", "setting": "[1]; 60 min", "value": 0.62}, {"measurement": "EF of OH-PCB 95 in the liver", "setting": "[3]", "value": "about 0.20"}]}, {"compound": "Oc1cc(Cl)c(-c2c(Cl)ccc(Cl)c2Cl)c(Cl)c1Cl", "note": "[4-136, 2,2',3,3',6,6'-hexachlorobiphenyl-4-ol]", "values": [{"measurement": "Formation of metabolite with increases in initial (−)-PCB 136 concentration", "setting": "[2]; 500 ng (+)-PCB 136 as major substrate, 60 min", "value": "significant increase"}, {"measurement": "Formation of metabolite with increases in initial (+)-PCB 136 concentration", "setting": "[2]; 60 min", "value": "significantly decreased"}]}, {"compound": "Oc1cc(Cl)c(Cl)c(-c2ccc(Cl)cc2Cl)c1Cl", "note": "[5-91, 2,2',3,4',6-pentachlorobiphenyl-5-ol]", "values": [{"measurement": "Average EF of 5-OH-PCB metabolite", "setting": "[1]", "value": 0.17}, {"measurement": "EF of 5-OH-PCB from incubation of parent PCB with rat liver microsomes", "setting": "[4]", "value": 0.54}]}, {"compound": "Oc1cc(Cl)c(Cl)c(-c2cc(Cl)ccc2Cl)c1Cl", "note": "[5-95, 2,2',3,5',6-pentachlorobiphenyl-5-ol]", "values": [{"measurement": "Average EF of 5-OH-PCB metabolite", "setting": "[1]", "value": "0.20 and ~ 0.20"}, {"measurement": "Biotransformation activity of 5-95 compared with 4-95", "setting": "[1]; rat CYP2B1, 60 min, Fig. 2A1", "value": "significantly greater biotransformation activity"}, {"measurement": "Depletion of OH-PCB after 60 min", "setting": "[1]; 60 min", "value": 64, "unit": "%"}, {"measurement": "EF of OH-PCB substrate after biotransformation", "setting": "[1]; 60 min", "value": 0.46}, {"measurement": "EF of OH-PCB 95 in the liver", "setting": "[3]", "value": "~0.65"}, {"measurement": "EF of 5-OH-PCB from incubation of parent PCB with rat liver microsomes", "setting": "[4]", "value": 0.36}]}, {"compound": "Oc1cc(Cl)c(Cl)c(-c2c(Cl)ccc(Cl)c2Cl)c1Cl", "note": "[5-136, 2,2',3,3',6,6'-hexachlorobiphenyl-5-ol]", "values": [{"measurement": "Average EF of 5-OH-PCB metabolite", "setting": "[1]", "value": 0.77}, {"measurement": "EF of 5-136 in livers", "setting": "[5]", "value": "≈ 0.4"}, {"measurement": "Formation of metabolite with increases in initial (+)-PCB 136 concentration", "setting": "[2]; 60 min", "value": "not influenced"}, {"measurement": "EF of 5-OH-PCB from incubation of parent PCB with rat liver microsomes", "setting": "[4]", "value": 0.70}]}, {"compound": "Oc1cc(Cl)c(Cl)c(-c2cc(Cl)c(Cl)cc2Cl)c1Cl", "note": "[5-149, 2,2',4',5,5',6-hexachlorobiphenyl-3-ol]", "values": [{"measurement": "Average EF of 5-OH-PCB metabolite", "setting": "[1]", "value": 0.41}, {"measurement": "EF of 5-OH-PCB from incubation of parent PCB with rat liver microsomes", "setting": "[4]", "value": 0.66}]}, {"compound": "Oc1cc(Cl)c(Cl)c(-c2ccc(Cl)c(Cl)c2Cl)c1Cl", "note": "[5’-132, 2,2',3,3',4',6-hexachlorobiphenyl-5-ol]", "values": [{"measurement": "Average EF of 5-OH-PCB metabolite", "setting": "[1]", "value": 0.85}, {"measurement": "EF of 5-OH-PCB from incubation of parent PCB with rat liver microsomes", "setting": "[4]", "value": 0.30}]}, {"compound": "Clc1ccc(Cl)c(-c2c(Cl)ccc(Cl)c2Cl)c1Cl", "note": "[(+)-PCB 136]", "values": [{"measurement": "Biotransformation activity of atropisomer compared with antipode", "setting": "[1]; rat CYP2B1, 60 min", "value": "significantly higher than their respective antipodes"}, {"measurement": "Biotransformation activity of (+)-PCB 136 in the presence of (−)-PCB 136", "setting": "[2]; 500 ng (+)-PCB 136, 0-500 ng/mL (−)-PCB 136, 60 min", "value": "not significantly affected"}]}, {"compound": "Clc1ccc(-c2c(Cl)ccc(Cl)c2Cl)c(Cl)c1Cl", "note": "[(−)-132]", "values": [{"measurement": "Biotransformation activity of atropisomer compared with antipode", "setting": "[1]; rat CYP2B1, 60 min", "value": "significantly higher than their respective antipodes"}]}, {"compound": "Clc1ccc(Cl)c(-c2c(Cl)ccc(Cl)c2Cl)c1Cl", "note": "[(−)-PCB 136]", "values": [{"measurement": "5-136 atropisomer formed in pure atropisomer incubation", "setting": "[2]; pure (−)-PCB 136 incubations, Fig. 4A2", "value": "E1-5-136 was the only metabolite"}]}, {"compound": "Clc1ccc(-c2c(Cl)ccc(Cl)c2Cl)c(Cl)c1", "note": "[E1-91]", "values": [{"measurement": "Biotransformation activity of atropisomer compared with antipode", "setting": "[1]; rat CYP2B1, 60 min", "value": "significantly higher than their respective antipodes"}]}, {"compound": "Clc1ccc(Cl)c(-c2c(Cl)ccc(Cl)c2Cl)c1", "note": "[E2-95]", "values": [{"measurement": "Biotransformation activity of atropisomer compared with antipode", "setting": "[1]; rat CYP2B1, 60 min", "value": "significantly higher than their respective antipodes"}]}, {"compound": "Clc1ccc(-c2c(Cl)ccc(Cl)c2Cl)c(Cl)c1", "note": "[PCB 91, 2,2',3,4',6-pentachlorobiphenyl]", "values": [{"measurement": "Formation of 4,5-DiOH-PCB from PCB", "setting": "[1]; rat CYP2B1, 60 min", "value": "minor metabolites"}, {"measurement": "4-OH-PCB metabolites detected by GC-ECD", "setting": "[1]; rat CYP2B1, 60 min", "value": "minor products"}, {"measurement": "Yield of 5-OH-PCB metabolite in rat liver microsomal studies", "setting": "[4]", "value": 20, "unit": "%"}]}, {"compound": "Clc1ccc(Cl)c(-c2c(Cl)ccc(Cl)c2Cl)c1", "note": "[PCB 95, 2,2',3,5',6-pentachlorobiphenyl]", "values": [{"measurement": "4-OH-PCB metabolites detected by GC-ECD", "setting": "[1]; rat CYP2B1, 60 min", "value": "minor products"}, {"measurement": "EF of PCB in vivo in rats", "setting": "[6]", "value": "> 0.5"}, {"measurement": "Yield of 5-OH-PCB metabolite in rat liver microsomal studies", "setting": "[4]", "value": 8.8, "unit": "%"}]}, {"compound": "Clc1ccc(-c2c(Cl)ccc(Cl)c2Cl)c(Cl)c1Cl", "note": "[PCB 132, 2,2',3,3',4,6'-hexachlorobiphenyl]", "values": [{"measurement": "Depletion of PCB after 60 min incubation", "setting": "[1]; 60 min", "value": 11, "unit": "%"}, {"measurement": "Yield of 5-OH-PCB metabolite in rat liver microsomal studies", "setting": "[4]", "value": 16, "unit": "%"}]}, {"compound": "Clc1ccc(Cl)c(-c2c(Cl)ccc(Cl)c2Cl)c1Cl", "note": "[PCB 136, 2,2',3,3',6,6'-hexachlorobiphenyl]", "values": [{"measurement": "Depletion of PCB after 60 min incubation", "setting": "[1]; 60 min", "value": 21, "unit": "%"}, {"measurement": "Formation of 4,5-DiOH-PCB from PCB", "setting": "[1]; rat CYP2B1, 60 min", "value": "minor metabolites"}, {"measurement": "4-OH-PCB metabolites detected by GC-ECD", "setting": "[1]; rat CYP2B1, 60 min", "value": "minor products"}, {"measurement": "EF of PCB in mice tissues after oral administration", "setting": "[3]; C57Bl/6 female mice tissues, oral administration", "value": "~0.7"}, {"measurement": "EF of PCB after 30 min microsomal incubation", "setting": "[4]; 30 min", "value": 0.40}, {"measurement": "Yield of 5-OH-PCB metabolite in rat liver microsomal studies", "setting": "[4]", "value": 22, "unit": "%"}]}, {"compound": "Clc1cc(Cl)c(-c2c(Cl)ccc(Cl)c2Cl)cc1Cl", "note": "[PCB 149, 2,2',3,4',5',6-hexachlorobiphenyl]", "values": [{"measurement": "Depletion of PCB after 60 min incubation", "setting": "[1]; 60 min", "value": 4, "unit": "%"}, {"measurement": "Stereoselectivity of biotransformation", "setting": "[1]; rat CYP2B1, 60 min", "value": "no apparent stereoselectivity"}, {"measurement": "EF of PCB 149 after 30 min biotransformation by rat liver microsomes", "setting": "[4]; 30 min", "value": 0.46}, {"measurement": "Yield of 5-OH-PCB metabolite in rat liver microsomal studies", "setting": "[4]", "value": 2.6, "unit": "%"}]}]}
